In patent publication US20150133426A1, “SUBSTITUTED PYRROLOPYRIMIDINES” (BAYER PHARMA AKTIENGESELLSCHAFT, priority 2012, published 2015):

Target: T1, human full-length MKNK1 (Homo sapiens, UniProt Q9BUB5, T385D)
T1 construct: purchased Carna Biosciences 02-145; host or cells: insect cells, baculovirus expression system
Test: MKNK1 kinase high ATP assay (TR-FRET)
Type: biochemical
Conditions: high ATP (2 mM), 15 min preincubation with enzyme, GST-MKNK1 (T344D)
Experimental: MKNK1-inhibitory activity at high ATP of compounds of the present invention after their preincubation with MKNK1 was quantified employing the TR-FRET-based MKNK1 high ATP assay as described in the following paragraphs.
A recombinant fusion protein of Glutathione-S-Transferase (GST, N-terminally) and human full-length MKNK1 (amino acids 1-424 and T344D of accession number BAA 19885.1), expressed in insect cells using baculovirus expression system and purified via glutathione sepharose affinity chromatography, was purchased from Carna Biosciences (product no 02-145) and used as enzyme. As substrate for the kinase reaction the biotinylated peptide biotin-Ahx-IKKRKLTRRKSLKG (C-terminus in amide form) was used, which can be purchased e.g. from the company Biosyntan (Berlin-Buch, Germany).
For the assay 50 nL of a 100fold concentrated solution of the test compound in DMSO was pipetted into a black low volume 384well microtiter plate (Greiner Bio-One, Frickenhausen, Germany), 2 μL of a solution of MKNK1 in aqueous assay buffer [50 mM HEPES pH 7.5, 5 mM MgCl2, 1.0 mM dithiothreitol, 0.005% (v/v) Nonidet-P40 (Sigma)] was added and the mixture was incubated for 15 min at 22° C. to allow pre-binding of the test compounds to the enzyme before the start of the kinase reaction. Then the kinase reaction was started by the addition of 3 μL of a solution of adenosine-tri-phosphate (ATP, 3.3 mM=>final conc. in the 5 μL assay volume is 2 mM) and substrate (0.1 μM=>final conc. in the 5 μL assay volume is 0.06 μM) in assay buffer and the resulting mixture was incubated for a reaction time of 30 min at 22° C. The concentration of MKNK1 was adjusted depending of the activity of the enzyme lot and was chosen appropriate to have the assay in the linear range, typical concentrations were in the range of 0.003 μg/mL. The reaction was stopped by the addition of 5 μL of a solution of TR-FRET detection reagents (5 nM streptavidine-XL665 [Cisbio Bioassays, Codolet, France] and 1 nM anti-ribosomal protein […] (pSer236)-antibody from Invitrogen [#44921G] and 1 nM LANCE EU-W1024 labeled ProteinG [Perkin-Elmer, product no. AD0071]) in an aqueous EDTA-solution (100 mM EDTA, 0.1% (w/v) bovine serum albumin in 50 mM HEPES pH 7.5).
The resulting mixture was incubated for 1 h at 22° C. to allow the formation of complex between the phosphorylated biotinylated peptide and the detection reagents. Subsequently the amount of phosphorylated substrate was evaluated by measurement of the resonance energy transfer from the Eu-chelate to the streptavidine-XL. Therefore, the fluorescence emissions at 620 nm and 665 nm after excitation at 350 nm were measured in a TR-FRET reader, e.g. a Rubystar (BMG Labtechnologies, Offenburg, Germany) or a Viewlux (Perkin-Elmer). The ratio of the emissions at 665 nm and at […] was taken as the measure for the amount of phosphorylated substrate. The data were normalised (enzyme reaction without inhibitor=0% inhibition, all other assay components but no enzyme=100% inhibition).

T1 sequence (Q9BUB5 1-424 isoform Q9BUB5-2 T344D): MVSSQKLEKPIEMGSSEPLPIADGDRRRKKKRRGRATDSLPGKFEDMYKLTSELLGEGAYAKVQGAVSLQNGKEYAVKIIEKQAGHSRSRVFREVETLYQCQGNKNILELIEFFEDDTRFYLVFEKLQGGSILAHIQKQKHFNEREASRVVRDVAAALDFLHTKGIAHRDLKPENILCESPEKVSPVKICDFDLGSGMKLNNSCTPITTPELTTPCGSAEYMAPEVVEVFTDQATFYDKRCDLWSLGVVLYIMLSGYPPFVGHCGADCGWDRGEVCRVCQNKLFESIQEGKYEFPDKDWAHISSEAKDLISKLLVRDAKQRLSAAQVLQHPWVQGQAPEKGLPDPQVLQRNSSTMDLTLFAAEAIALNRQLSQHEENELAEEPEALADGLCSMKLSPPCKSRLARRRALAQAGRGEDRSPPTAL

SMILES | IC50 [nM]
COc1cc(Cl)c(Cl)cc1Nc1ncnc2[nH]c3c(c12)CC(C(=O)NCCCS(C)(=O)=O)CC3 (racemic) [Example 44, (RS)-4-[(4,5-Dichloro-2-methoxyphenyl)amino]-N-[3-(methylsulfonyl)propyl]-6,7,8,9-tetrahydro-5H-pyrimido[4,5-b]indole-6-carboxamide] | 6
CS(=O)(=O)CCCNC(=O)C1CCc2[nH]c3ncnc(Nc4ccc(F)c(OC(F)(F)F)c4)c3c2C1 (racemic) [Example 43, (RS)-4-{[4-Fluoro-3-(trifluoromethoxy)phenyl]amino}-N-[3-(methylsulfonyl)propyl]-6,7,8,9-tetrahydro-5H-pyrimido[4,5-b]indole-6-carboxamide] | 782
CC(C)COc1ccccc1Nc1ncnc2[nH]c3c(c12)CC(C(=O)NCCCS(C)(=O)=O)CC3 (racemic) [Example 153, (RS)-4-{[2-(2-Methylpropoxy)phenyl]amino}-N-[3-(methylsulfonyl)propyl]-6,7,8,9-tetrahydro-5H-pyrimido[4,5-b]indole-6-carboxamide] | 193
COc1ccc(C(F)(F)F)cc1Nc1ncnc2[nH]c3c(c12)CC(C(=O)NCCCS(C)(=O)=O)CC3 (racemic) [Example 67, (RS)-4-{[2-Methoxy-5-(trifluoromethyl)phenyl]amino}-N-[3-(methylsulfonyl)propyl]-6,7,8,9-tetrahydro-5H-pyrimido[4,5-b]indole-6-carboxamide] | 28
CC1(C)Cc2cccc(Nc3ncnc4[nH]c5c(c34)CC(C(=O)NCCCS(C)(=O)=O)CC5)c2O1 (racemic) [Example 80, (RS)-4-[(2,2-Dimethyl-2,3-dihydro-1-benzofuran-7-yl)amino]-N-[3-(methylsulfonyl)propyl]-6,7,8,9-tetrahydro-5H-pyrimido[4,5-b]indole-6-carboxamide] | 494
COc1cc(Cl)c(Cl)cc1Nc1ncnc2[nH]c3c(c12)CC(C(=O)O)CC3 (racemic) [Example 18, (RS)-4-[(4,5-Dichloro-2-methoxyphenyl)amino]-6,7,8,9-tetrahydro-5H-pyrimido[4,5-b]indole-6-carboxylic acid] | 24
COc1ccc(Cl)cc1Nc1ncnc2[nH]c3c(c12)CC(F)(F)CC3 [Example 144] | ≥ 20000
CC(C)Oc1cc2[nH]ncc2cc1Nc1ncnc2[nH]c3c(c12)CC(F)(F)CC3 [Example 232, 6,6-Difluoro-N-[6-(propan-2-yloxy)-1H-indazol-5-yl]-6,7,8,9-tetrahydro-5H-pyrimido[4,5-b]indol-4-amine] | 5
CCNC(=O)C1CCc2[nH]c3ncnc(N4CCc5ccccc54)c3c2C1 (racemic) [Example 207, (RS)-4-(2,3-Dihydro-1H-indol-1-yl)-N-ethyl-6,7,8,9-tetrahydro-5H-pyrimido[4,5-b]indole-6-carboxamide] | 3140
COc1cc2nc(C)sc2cc1Nc1ncnc2[nH]c3c(c12)CC(C(=O)NCCCS(C)(=O)=O)CC3 (racemic) [Example 68, (RS)-4-[(5-Methoxy-2-methyl-1,3-benzothiazol-6-yl)amino]-N-[3-(methylsulfonyl)propyl]-6,7,8,9-tetrahydro-5H-pyrimido[4,5-b]indole-6-carboxamide] | 6160
O=[N+]([O-])c1ccc2c(c1)CCN2c1ncnc2[nH]c3c(c12)CCCC3 [Example 123] | 1550
COc1ccc(OC)c(Nc2ncnc3[nH]c4c(c23)CC(C(=O)NCCCS(C)(=O)=O)CC4)c1 (racemic) [Example 42, (RS)-4-[(2,5-Dimethoxyphenyl)amino]-N-[3-(methylsulfonyl)propyl]-6,7,8,9-tetrahydro-5H-pyrimido[4,5-b]indole-6-carboxamide] | 615
CN1CCN(C(=O)C2CCc3[nH]c4ncnc(Nc5ccc6[nH]c(=O)sc6c5)c4c3C2)CC1 (racemic) [Example 222, (RS)-6-({6-[(4-Methylpiperazin-1-yl)carbonyl]-6,7,8,9-tetrahydro-5H-pyrimido[4,5-b]indol-4-yl}amino)-1,3-benzothiazol-2(3H)-one] | 25
CS(=O)(=O)CCCNC(=O)C1CCc2[nH]c3ncnc(Nc4cc(OC(F)(F)F)ccc4F)c3c2C1 (racemic) [Example 62, (RS)-4-{[2-Fluoro-5-(trifluoromethoxy)phenyl]amino}-N-[3-(methylsulfonyl)propyl]-6,7,8,9-tetrahydro-5H-pyrimido[4,5-b]indole-6-carboxamide] | 677
COc1ccc(C(F)(F)F)cc1Nc1ncnc2[nH]c3c(c12)CC(C(=O)NC(C)C)CC3 (racemic) [Example 213, (RS)-4-{[2-Methoxy-5-(trifluoromethyl)phenyl]amino}-N-(propan-2-yl)-6,7,8,9-tetrahydro-5H-pyrimido[4,5-b]indole-6-carboxamide] | 103
COc1ccc(Nc2ncnc3[nH]c4c(c23)CC(C(=O)NCCCS(C)(=O)=O)CC4)c(OC)c1 (racemic) [Example 73, (RS)-4-[(2,4-Dimethoxyphenyl)amino]-N-[3-(methylsulfonyl)propyl]-6,7,8,9-tetrahydro-5H-pyrimido[4,5-b]indole-6-carboxamide] | 4140
CN1CCN(C(=O)C2CCc3[nH]c4ncnc(Nc5ccccc5OC5CCCC5)c4c3C2)CC1 (racemic) [Example 192, (RS)-(4-{[2-(Cyclopentyloxy)phenyl]amino}-6,7,8,9-tetrahydro-5H-pyrimido[4,5-b]indol-6-yl)(4-methylpiperazin-1-yl)methanone] | 181
CS(=O)(=O)CCCNC(=O)C1CCc2[nH]c3ncnc(Nc4ccc5c(c4)OC(F)(F)O5)c3c2C1 (racemic) [Example 36, (RS)-4-[(2,2-Difluoro-1,3-benzodioxol-5-yl)amino]-N-[3-(methylsulfonyl)propyl]-6,7,8,9-tetrahydro-5H-pyrimido[4,5-b]indole-6-carboxamide] | 3170
CS(=O)(=O)CCCNC(=O)C1CCc2[nH]c3ncnc(Nc4ccc(C(=O)N5CCCC5)cc4)c3c2C1 (racemic) [Example 38, (RS)—N-[3-(Methylsulfonyl)propyl]-4-{[4-(pyrrolidin-1-ylcarbonyl)phenyl]amino}-6,7,8,9-tetrahydro-5H-pyrimido[4,5-b]indole-6-carboxamide] | 10600
CC(C)Oc1cc(F)ccc1Nc1ncnc2[nH]c3c(c12)CN(Cc1ccccc1)CC3 [Example 8, 6-Benzyl-N-(4-fluoro-2-isopropoxyphenyl)-6,7,8,9-tetrahydro-5H-pyrido[3′,4′:4,5]pyrrolo[2,3-d]pyrimidin-4-amine] | 2940
CC(C)Oc1cc(F)ccc1Nc1ncnc2[nH]c3c(c12)CSCC3 [Example 11, N-(4-Fluoro-2-isopropoxyphenyl)-5,7,8,9-tetrahydrothiopyrano[3′,4′:4,5]pyrrolo[2,3-d]pyrimidin-4-amine] | 42
CC(C)Oc1ccc(Cl)cc1Nc1ncnc2[nH]c3c(c12)CC(F)(F)CC3 [Example 143] | 407
c1ccc(N2CCOCC2)c(Nc2ncnc3[nH]c4c(c23)CCCC4)c1 [Example 118] | ≥ 20000
CC(C)Oc1cc(F)ccc1Nc1ncnc2[nH]c3c(c12)CCCC3 [Example 1, N-(4-Fluoro-2-isopropoxyphenyl)-6,7,8,9-tetrahydro-5H-pyrimido[4,5-b]indol-4-amine] | 43
CS(=O)(=O)CCCNC(=O)C1CCc2[nH]c3ncnc(Nc4ccc5c(c4)CS(=O)(=O)C5)c3c2C1 (racemic) [Example 40, (RS)-4-[(2,2-Dioxido-1,3-dihydro-2-benzothiophen-5-yl)amino]-N-[3-(methylsulfonyl)propyl]-6,7,8,9-tetrahydro-5H-pyrimido[4,5-b]indole-6-carboxamide] | 1160
CNC(=O)C1CCc2[nH]c3ncnc(Nc4ccccc4OC4CCCC4)c3c2C1 (racemic) [Example 189, (RS)-4-{[2-(Cyclopentyloxy)phenyl]amino}-N-methyl-6,7,8,9-tetrahydro-5H-pyrimido[4,5-b]indole-6-carboxamide] | 84
